Experimental data as given in US20240334934A1, “FUNGICIDE MIXTURE” (priority 2021, published 2024).
Read-outs that look alike come from different tables or passages of the source.

Legend:
[1] = system: Zymoseptoria tritici K6105; experiment: Efficacy of mixtures of streptimidone and CtmC, liquid culture in PDB, optical density 620 nm; assay type: cell-based
[2] = system: Zymoseptoria tritici; experiment: Efficacy of purified CtmC in-vitro, microtiter plate growth inhibition; assay type: cell-based; conditions: rate 10 ppm; 72 hrs at 24° C.
Procedure: CtmC was dissolved in DMSO (Dimethylsulfoxid) to a final concentration of 1000 ppm to create a stock solution. A second dilutions of 1:10 was made in water+0.025% Tween 20. From this second dilution 10 μl are dispensed into a 96-well plate. To each well, 90 μl of medium with fungal spores are added and mixed, resulting in final CtmC concentrations of 10 ppm. All wells containing CtmC also contain DMSO (1%) and Tween 20 (0.0025%).
Zymoseptoria tritici (Septoria leaf blotch): Conidia of the fungus from cryogenic storage were directly mixed into nutrient broth (PDB potato dextrose broth). After placing a solution of the test compounds into a microtiter plate (96-well format) the nutrient broth containing the fungal spores was added.

[3] = system: Zymoseptoria tritici; experiment: Greenhouse test, wheat, preventative; assay type: in vivo; conditions: 1 day preventative, EC50 formulation
Procedure: (§1) Purified Cyclothiazomycin C (CtmC) was formulated as an EC50 formulation. The formulation was diluted in water at rates of 100 ppm and 50 ppm of CtmC. Plants were treated with 400 L/ha of the diluted product supplemented with an adjuvant to improve sticking and spreading, resulting in a treatment of 40 g/ha and 20 g/ha of CtmC, respectively.
Zymoseptoria tritici wheat/preventative (Septoria tritici leaf spot on wheat). 2-week old wheat plants cv. Riband are sprayed in a spray chamber with the formulated test compound diluted in water. The test plants are inoculated by spraying a spore suspension on them one day after application. After an incubation period of 1 day at 22° C./21° C. (day/night) and 95% rh, the inoculated test plants are kept at 22° C./21° C. (day/night) and 70% rh in a greenhouse. Efficacy is assessed directly when an appropriate level of disease appears on untreated check plants (16-19 days after application).

[4] = system: Puccinia triticina; experiment: Greenhouse test, wheat, preventative; assay type: in vivo; conditions: 2 days preventative, EC50 formulation
Procedure: as §1
Puccinia triticina (also known as recondata, Brown rust on wheat). 2-week old wheat plants cv. Arina are sprayed in a spray chamber with the formulated test compound diluted in water. […] After an incubation period of 1 day at 20° C. and 95% rh, the inoculated test plants are kept at 20° C./18° C. (day/night) and 60% rh in a greenhouse. The percentage leaf area covered by disease is assessed when an appropriate level of disease appears on untreated check plants (12-14 days after application).

[5] = system: Cercospora kikuchii K6080; experiment: Efficacy of purified CtmC alone in-vitro, 96 well plate, OD 620 nm; assay type: cell-based; conditions: CtmC 10 ppm
Procedure: (§2) CtmC was dissolved in DMSO (Dimethylsulfoxid) to a final concentration of 1000 ppm to create a stock solution. A second dilutions of 1:10 was made in water+0.025% Tween 20. From this second dilution 10 μl are dispensed into a 96 well plate. To each well, 90 μl of medium (PDB—potato dextrose broth, plus 0.3% agar) with fungal spores are added and mixed, resulting in final CtmC concentrations of 10 ppm. All wells containing CtmC also contain DMSO (1%) and Tween 20 (0.0025%). In the following table 4 some of the species were tested using several distinct isolates (internal strain number indicated) to understand variability among different isolates of the same species sampled in different locations, producing different mycotoxins (genus Fusarium), or expressing various tolerances to fungicides of the SDHI (Succinate Dehydrogenase Inhibitor), SBI (Sterol Biosynthesis Inhibitors) and/or QoI (quinone outside inhibitors) classes (example: Zymoseptoria tritici). Different isolates had variable inoculum density and number of biological repicas, as indicated.

[6] = system: Cercospora sojina K5703; experiment: as above; assay type: cell-based; conditions: CtmC 10 ppm
Procedure: as §2

[7] = system: Colletotrichum orbiculare K5770; experiment: as above; assay type: cell-based; conditions: CtmC 10 ppm
Procedure: as §2

[8] = system: Corynespora cassiicola K5577; experiment: as above; assay type: cell-based; conditions: CtmC 10 ppm
Procedure: as §2

[9] = system: Fusarium avenaceum K6940; experiment: as above; assay type: cell-based; conditions: CtmC 10 ppm
Procedure: as §2

[10] = system: Fusarium culmorum K5488; experiment: as above; assay type: cell-based; conditions: CtmC 10 ppm
Procedure: as §2

[11] = system: Fusarium culmorum K8196; experiment: as above; assay type: cell-based; conditions: CtmC 10 ppm
Procedure: as §2

[12] = system: Fusarium poae K8039; experiment: as above; assay type: cell-based; conditions: CtmC 10 ppm
Procedure: as §2

[13] = system: Fusarium tricinctum K7452; experiment: as above; assay type: cell-based; conditions: CtmC 10 ppm
Procedure: as §2

[14] = system: Fusarium tricinctum K7454; experiment: as above; assay type: cell-based; conditions: CtmC 10 ppm
Procedure: as §2

[15] = system: Gibberella avenacea K6939; experiment: as above; assay type: cell-based; conditions: CtmC 10 ppm
Procedure: as §2

[16] = system: Gibberella fujikuroi K5299; experiment: as above; assay type: cell-based; conditions: CtmC 10 ppm
Procedure: as §2

[17] = system: Venturia inaequalis K6222; experiment: as above; assay type: cell-based; conditions: CtmC 10 ppm
Procedure: as §2

[18] = system: Zymoseptoria tritici K6105; experiment: as above; assay type: cell-based; conditions: CtmC 10 ppm
Procedure: as §2

[19] = system: Zymoseptoria tritici K6420; experiment: as above; assay type: cell-based; conditions: CtmC 10 ppm
Procedure: as §2

[20] = system: Zymoseptoria tritici K7953; experiment: as above; assay type: cell-based; conditions: CtmC 10 ppm
Procedure: as §2

[21] = system: Tilletia tritici K5212; experiment: as above; assay type: cell-based; conditions: CtmC 10 ppm

C=C1NC(=O)CNC(=O)[C@H](CCCCN)NC(=O)[C@@]2(C)NC(=O)/C(=C/C)NC(=O)[C@H]3CSC(=N3)[C@@H](CC(N)=O)CC(=O)c3ccc(nc3[C@@H](C)NC(=O)[C@@H]3CCCN3C1=O)-c1nc(cs1)C1=N[C@H](CS1)C(=O)NC(=C)c1nc(cs1)-c1nc(cs1)C1=N[C@@H](CS1)C(=O)N[C@@H](C(=O)O)CS2 [CtmC, cyclothiazomycin C]
Emax at 0.0556 ppm ([1]; K6105, read-out: % Efficacy, CtmC 0.0556 ppm alone (Streptimidone 0), lower sub-table): 0%
Emax at 0.0556 ppm ([1]; K6105, read-out: % Efficacy, CtmC 0.0556 ppm alone (Streptimidone 0), upper sub-table): 19%
Emax at 0.1667 ppm ([1]; K6105, read-out: % Efficacy, CtmC 0.1667 ppm alone (Streptimidone 0), lower sub-table): 23%
Emax at 0.1667 ppm ([1]; K6105, read-out: % Efficacy, CtmC 0.1667 ppm alone (Streptimidone 0), upper sub-table): 61%
Emax at 0.5 ppm ([1]; K6105, read-out: % Efficacy, CtmC 0.5000 ppm alone (Streptimidone 0), lower sub-table): 47%
Emax at 0.5 ppm ([1]; K6105, read-out: % Efficacy, CtmC 0.5000 ppm alone (Streptimidone 0), upper sub-table): 78%
control of fungal growth (%) [2]: 90%
efficacy 20 g/ha (%) ([3]; 20 g/ha): 44%
efficacy 40 g/ha (%) ([3]; 40 g/ha): 16%
efficacy 20 g/ha (%) ([4]; 20 g/ha): 81%
efficacy 40 g/ha (%) ([4]; 40 g/ha): 81%
efficacy (%) [5]: 100%
optical density at 620 nm ([5]; blank 0.044, untreated 0.215): 0.043
efficacy (%) [6]: 54%
optical density at 620 nm ([6]; blank 0.047, untreated 0.357): 0.188
efficacy (%) [7]: 56%
optical density at 620 nm ([7]; blank 0.035, untreated 0.449): 0.218
efficacy (%) [8]: 86%
optical density at 620 nm ([8]; blank 0.047, untreated 0.427): 0.100
efficacy (%) [9]: 52%
optical density at 620 nm ([9]; blank 0.054, untreated 0.410): 0.225
efficacy (%) [10]: 52%
optical density at 620 nm ([10]; blank 0.046, untreated 0.374): 0.203
efficacy (%) [11]: 48%
optical density at 620 nm ([11]; blank 0.055, untreated 0.701): 0.388
efficacy (%) [12]: 62%
optical density at 620 nm ([12]; blank 0.050, untreated 0.619): 0.267
efficacy (%) [13]: 68%
optical density at 620 nm ([13]; blank 0.052, untreated 0.498): 0.197
efficacy (%) [14]: 65%
optical density at 620 nm ([14]; blank 0.050, untreated 0.463): 0.195
efficacy (%) [15]: 82%
optical density at 620 nm ([15]; blank 0.055, untreated 0.675): 0.165
efficacy (%) [16]: 47%
optical density at 620 nm ([16]; blank 0.053, untreated 0.941): 0.528
efficacy (%) [17]: 86%
optical density at 620 nm ([17]; blank 0.044, untreated 0.320): 0.082
efficacy (%) [18]: 99%
optical density at 620 nm ([18]; blank 0.044, untreated 0.354): 0.046
efficacy (%) [19]: 93%
optical density at 620 nm ([19]; blank 0.048, untreated 0.257): 0.064
efficacy (%) [20]: 77%
optical density at 620 nm ([20]; blank 0.055, untreated 0.235): 0.096
efficacy (%) [21]: 96%
optical density at 620 nm ([21]; blank 0.046, untreated 0.451): 0.062
